From US4080454A, “5-M-Tolyloxyuracil, anti-ulcer agent” (priority 1976, dated 1978)
“Also recorded” adds a separate entry of the source.

Assays:
[1] = test system: stress induced gastric ulceration; assay: Cold-restraint stress induced gastric ulceration (antiulcer activity); format: in vivo, female rats; conditions: for % incidence of lesions / Number of lesions: 3 h before stress; for Number of lesions: total in group
Method: In order to test the antiulcer activity of 5-m-tolyloxyuracil, stress induced gastric ulceration was produced by immobilizing non-fasted, female rats in a supine position and placing them in a refrigerator at 12° C. for 3 hours. Experimental drugs were administered 3 hours before the initiation of the cold-restraint stress period. At the conclusion of the stress period, the rats were sacrificed, their stomachs inflated with 5 ml of water and removed. The isolated stomachs were placed in a 4 percent aqueous solution of formaldehyde to stiffen the serosal side of the inflated stomach. This procedure facilitates examination of the stomach which is accomplished by slitting the stomach along its greater curvature and noting the number and incidence of gastric lesions. Both control and experimental drug groups consisted of ten rats. A significant reduction in the number and incidence of gastric lesions characterizes antiulcer agents.
The table below compares 5-m-tolyoxyuracil (Compound A) with 5-m-tolyloxy-2-thiouracil (Compound B), Carbenoxolone-Na (Compound C), and 5-(m-methylphenoxy)-2(1H)-pyrimidinone (Compound D).
Percent incidence of lesions is defined as follows. [formula] Number of lesions is the total number of lesions in the experimental group.

thymidine phosphorylase = conditions: J. Med. Chem., 14, 812 (1971); cited from earlier work
FUDR phosphorylase = conditions: J. Med. Chem., 13, 461 (1970); cited from earlier work
[2] = Metabolic conversion in human subjects; format: in vivo
Method: (§1) In man, using single doses of 400 to 700 mg of 5-(m-methylphenoxy)-2-(1H)pyrimidinone, this drug had declined below the level of detectability by 2 hours post dose.

[3] = Plasma pharmacokinetics in human subjects; format: in vivo
Method: as §1
In our studies in animals and man we have never been able to isolate 5-m-tolyloxyuracil in substantially pure form. Rather we have obtained samples of urine and blood plasma from animals and man consisting of a multitude of natural components, one of which we have identified as 5-m-tolyloxyuracil by comparison of its physical properties with material prepared in substantially pure form by the synthesis described in the present application. Indeed, in samples of plasma from human subjects treated with 5-m-tolyloxy-2(1H)pyrimidinone we have only detected peak levels of 5-m-tolyloxyuracil at the very low concentration of 40 ug/ml. When we say "in substantially pure form", we mean a purity of 95% or greater.

[4] = Metabolism of 5-(m-methylphenoxy)-2-(1H)pyrimidinone / 5-m-tolyloxyuracil in monkeys (C2 radiolabel); format: in vivo
[5] = Search for other metabolic modifications of 5-(m-methylphenoxy)-2-(1H)pyrimidinone; design: species or system rats, monkeys and human subjects; conditions: in vivo
Method: U.S. Pat. No. 3,922,345 discloses the method of treating peptic ulcers which comprises administering to a subject afflicted therewith a daily dose of about 0.60 to 21 mg per kg. of body weight of 5-(m-methylphenoxy)-2-(1H)-pyrimidinone. […] We have been unable to detect metabolic products resulting from (1) phenoxy ring hydroxylation, (2) oxidation of the m-methyl group or (3) ether cleavage.

[6] = Metabolism of 5-(m-methylphenoxy)-2-(1H)pyrimidinone / 5-m-tolyloxyuracil in rats (C2 radiolabel); format: in vivo
[7] = test system: experimentally-induced gastric ulceration; conditions: animals; cited from earlier work
gastric ulcer = conditions: human gastric ulcer patients; cited from earlier work
[8] = literature; cited from earlier work
[9] = rats, cold-restraint stress, doses of the table
[10] = endogenously generated 5-m-tolyloxyuracil

Cc1cccc(Oc2c[nH]c(=S)[nH]c2=O)c1 [Compound B, 5-m-tolyloxy-2-thiouracil]
% incidence of lesions ([1]; 10 mg/kg po, control 80): 80%
Number of lesions ([1]; 10 mg/kg po, control 31): 50
antiulcer activity (in words) [1, 9]: inactive

O=c1[nH]cc(Oc2ccccc2)c(=O)[nH]1 [5-Phenoxyuracil]
inhibition of thymidine phosphorylase (thymidine phosphorylase): poor activity
inhibition of FUDR phosphorylase (FUDR phosphorylase): poor activity

Cc1cccc(Oc2cnc(=O)[nH]c2)c1 [Compound D, 5-(m-methylphenoxy)-2(1H)-pyrimidinone]
% incidence of lesions ([1]; 10 mg/kg ip, control 90): 60%
Number of lesions ([1]; 10 mg/kg ip, control 42): 12
% incidence of lesions ([1]; 32 mg/kg ip, control 90): 40%
Number of lesions ([1]; 32 mg/kg ip, control 34): 13
antiulcer activity (in words) [1, 9]: effective antiulcer agents at both doses tested since the number and incidence of lesions following drug treatment are significantly lower (P value < 0.05) than in controls
metabolic conversion to 5-m-tolyloxyuracil [2]: rapidly and efficiently metabolically converted to 5-m-tolyloxyuracil
time post dose to decline below the level of detectability ([3]; human, single doses of 400 to 700 mg): ≤ 2 h
metabolic conversion to 5-m-tolyloxyuracil [4]: rapidly and efficiently metabolically converted to 5-m-tolyloxyuracil
other metabolic modifications (phenoxy ring hydroxylation, m-methyl oxidation, ether cleavage) [5]: do not occur to any detectable extent
metabolic conversion to 5-m-tolyloxyuracil [6]: rapidly and efficiently metabolically converted to 5-m-tolyloxyuracil

CC1(C(=O)O)CCC2(C)CCC3(C)C(=CC(=O)C4C5(C)CCC(OC(=O)CCC(=O)O)C(C)(C)C5CCC43C)C2C1 (stereo not shown) [Compound C, Carbenoxolone-Na]
antiulcer activity (in words) ([1]; 32 mg/kg): less active at 32 mg/kg at which dose the activity is not significant at the P = 0.05 level
% incidence of lesions ([1]; 32 mg/kg ip, control 50): 40%
Number of lesions ([1]; 32 mg/kg ip, control 15): 9
antiulcer activity (in words) ([1]; 60 mg/kg): significantly active (P < 0.05)
% incidence of lesions ([1]; 60 mg/kg ip, control 65): 25%
Number of lesions ([1]; 60 mg/kg ip, control 24): 7
protection from experimentally-induced gastric ulceration [7]: known to protect animals from experimentally-induced gastric ulceration
gastric antiulcer efficacy in clinical trials (gastric ulcer): effective gastric antiulcer agent

Cc1cccc(Oc2c[nH]c(=O)[nH]c2=O)c1 [Compound A, 5-m-tolyloxyuracil]
% incidence of lesions ([1]; 32 mg/kg ip, control 100): 56%
Number of lesions ([1]; 32 mg/kg ip, control 58): 19
% incidence of lesions ([1]; 50 mg/kg ip, control 100): 70%
Number of lesions ([1]; 50 mg/kg ip, control 58): 34
antiulcer activity (in words) [1, 9]: effective antiulcer agents at both doses tested since the number and incidence of lesions following drug treatment are significantly lower (P value < 0.05) than in controls
antiulcer activity (in words) ([1]; rats, cold-restraint stress, doses of the table, listed as 5-m-tolyloxyuracil): protects rats against ulceration
plasma half life compared with 5-(m-methylphenoxy)-2-(1H)pyrimidinone ([3]; human subjects): much longer plasma half life; also recorded: much longer plasma half-life
peak plasma concentration compared with parent drug ([3]; human, endogenously generated after single 400 to 700 mg doses of 5-(m-methylphenoxy)-2-(1H)pyrimidinone): peak concentrations greater than that of parent drug
metabolic degradation (ring opening, loss of C2 as carbon dioxide) [4, 10]: does not undergo this metabolic degradation; also recorded: no appriciable quantities of radioactive CO2 were observed
metabolic degradation (ring opening, loss of C2 as carbon dioxide) [6, 10]: does not undergo this metabolic degradation; also recorded: no appriciable quantities of radioactive CO2 were observed

O=c1[nH]cc(F)c(=O)[nH]1 [5-fluorouracil]
metabolic conversion / degradation [8]: metabolically converted to 5,6-dihydrouracils which undergo ring opening with subsequent loss of the C2 pyrimidine carbon as carbon dioxide; also recorded: undergoes a reduction of the 5,6-double bond to give a 5,6-dihydrouracil which subsequently undergoes ring opening to an N-acetamido βalanine which then loses the C-2 pyrimidine carbon as carbon dioxide
